Results published in US20200171118A1.
Read-outs that look alike come from different tables or passages of the source.

Assays:
[1] = Lewis acidity measuring method (1): rate of oxidation of CoTPP by O2 in the presence of the Lewis acid; type: physicochemical; details: for Lewis acidity (ΔE value): calculated from rate of oxidization of CoTPP with O2
[2] = tested on: Escherichia coli MV1184; experiment: MIC/MBC determination, sterilizing effect (microplate, BHI liquid medium); type: cell-based; details: E. coli MV1184; substance 12.5 to 20 ppm, sodium chlorite about 0.14 mM to 0.22 mM

Compound	Lewis acidity (ΔE value) [1] [eV]	sterilizing action (sterilizing effect) of drug made from the substance and sodium chlorite [2]	also measured
CCCCCCCCCCCCCCCCCC[N+](C)(C)Cc1ccccc1.[Cl-]	0.52	has a sterilizing action (sterilizing effect)	kcat, reaction rate constant of reaction between CoTPP and oxygen in the presence of a Lewis acid ([1]; acetonitrile, saturated O2, room temperature): 0.18 M^−2 s^−1
CC(=O)OCC[N+](C)(C)C [Acetylcholine]	0.51		
Cl.N [Ammonium chloride]	0.66	has a sterilizing action (sterilizing effect)	
CC[N+](CC)(CC)Cc1ccccc1.[Cl-] [Benzyltriethyl ammonium chloride]	0.54		
C[N+](C)(C)CC(=O)O [Betaine]	0.67		
C[N+](C)(C)CCOC(N)=O [Carbamylcholine]	0.52		
N[C@@H](CC(=O)O)C(=O)O [L-aspartate]		has a sterilizing action (sterilizing effect)	
N[C@@H](CO)C(=O)O [L-serine]		has a sterilizing action (sterilizing effect)	
Cc1cc2nc3cc(C)c(N)cc3[n+](-c3ccccc3)c2cc1N.[Cl-] [Safranine]	0.67		
CCCC[N+](CCCC)(CCCC)CCCC.[Cl-] [Tetrabutylammonium chloride]	0.63	has a sterilizing action (sterilizing effect)	
C[N+](C)(C)C.[Cl-] [Tetramethylammonium chloride]	0.50		
C[n+]1cccc(C(=O)[O-])c1 [Trigonelline]	0.69		
NCC(=O)O [glycine]		has a sterilizing action (sterilizing effect)	
CN.Cl [methylammonium chloride]	0.70	has a sterilizing action (sterilizing effect)	
C[n+]1ccccc1C=NO.[I-] [pralidoxime methyl iodide]	0.60		
O=C(O)[C@@H]1CCCN1 [proline]		has a sterilizing action (sterilizing effect)	
CCCC[N+](CCCC)(CCCC)CCCC.F[P-](F)(F)(F)(F)F [tetrabutylammonium hexafluorophosphate]			kcat, reaction rate constant of reaction between CoTPP and oxygen in the presence of a Lewis acid [1]: >0.1 M^−2 s^−1
benzethonium chloride		has a sterilizing action (sterilizing effect)	
oxidized glutathione		has a sterilizing action (sterilizing effect)	
